# Where “and” joins values, the source holds several entries; their conditions need not be identical. Equal entries are not always repeated. Entries after “also recorded” stand apart in the source; their conditions may differ.
# Assays:
# [1] = tested on: electrically blocked neurons (mouse spinal cord neurons); format: cell-based
# [2] = tested on: untreated neurons (cerebral cortical cultures); experiment: Survival of untreated neurons (naturally occurring death), cerebral cortical cultures; format: cell-based; settings: untreated rat cerebral cortical cultures
# Method: (a) Cerebral cortical cultures were prepared by a slight modification of the techniques described by Forsythe and Westbrook, (a. Physiol. Lond. 396:515 (1988)), in which cerebral cortex was used instead of hippocampus and newborn rats were utilized instead of E16 mice. After nine days growth in vitro, the cultures were given a complete change of medium and treated with serial dilutions of either peptide 1, 2 or 6 in order to determine whether these peptides were effective in protecting neurons from naturally occurring death. Cerebral cortical cells were counted as above, however, only 40 fields per plate were counted comprising an area of 20 mm^2.
# (a) Cells were prepared as described in Example 6. After nine days growth in vitro, the cultures were given a complete change of medium and treated with serial dilutions of peptide 5 or of peptide 3 in the presence and in the absence of 10^-8 M of a VIP antagonist described in detail in U.S. Pat. No. 5,217,953. One treatment was given at the beginning of a five day test period. Cell counts were performed on 100 fields, with a total area of 50 mm^2. Neurons were counted without knowledge of treatment.
# [3] = tested on: learning and memory in AF64A-treated rats; experiment: Morris water maze, AF64A animal model of Alzheimer, nasal drug administration; format: in vivo, rat; settings: daily nasal administration (St-Nle17-VIP 70 μg/40 μl; peptide 6 50 μg/40 μl)
# Method: 8 Male rats were all treated with AF64A as described above. 10 days after AF64A administration 5 animals received daily nasal administration of St-Nle^17 -VIP dissolved in 10% sefsol and 40% isopropanol at a concentration of 70 μg/40 μl (20 μl administered through each nostril). 3 Animals received daily nasal administration of 50 μg/40 μI of peptide 6, (20 μl/nostril) dissolved in 10% sefsol and 40% isopropanol. 6 Control animals received daily nasal administration of 10% sefsol and 40% isopropanol at an amount of 40 μl/day (20 μl nostril). The animals were partially anesthetized by diethylether prior to nasal administration. Both control and test animals were daily treated with 50,000 units of durabiotic antibiotics to avoid infection. Following 7 days of nasal administration behavioral tests were conducted on both control and test animals for an additional 8 days. […]
# (§1) Rats were placed in a circular pool, 1.26 m in diameter, 0.2 m deep, equipped with a clear plexiglas column, with a 13.3 cm platform reaching just below the surface of the water (22-24° C.). […] The latency of reaching the platform was recorded for each rat (in seconds) and the changes over days of training were graphed, which reflect learning and memory.
# [4] = tested on: Sprague Dawley rats; experiment: Repeated dose toxicity, topically applied, 13 weeks
# [5] = Pharmacological experimentation: biologically active dose; format: in vivo; settings: rat
# Method: The logic of the dose design was as follows: pharmacological experimentation has shown that the biologically active dose is 7 μg per rat. The dose of 1000× the biologically active dose was chosen for this experiment.
# [6] = tested on: Neurons from rat cerebral cortex treated with β-amyloid peptide fragment 25-35; experiment: Survival of neurons treated with fragment 25-35 of β-amyloid peptide
# [7] = tested on: learning and memory in old rats; experiment: Learning and memory in old animals (water pool), nasal administration; format: in vivo, rat; settings: rats aged 18-20 months, nasal 100 μg/40 μl/day
# Method: 6 Male rats aged 18-20 months were divided into hvo groups. Group 1 received daily nasal administrations of St-Nle^17 -VIP dissolved in 10% sefsol at 40% isopropanol at a dose of 100 μg/40 μl/day (20 μl/nostril). Control animals were treated with daily nasal administration of 40 μl/day of 10% sefsol and 40% isopropanol (20 μl/nostril). The administration was carried out after partial anesthetization by diethylether. Animals were thus treated for 7-19 days and then were tested by placing them in a water pool as described above.
# [8] = Stability of test material; format: physicochemical
# [9] = Biodistribution following intranasal administration of radioiodinated peptide; format: in vivo, rat; settings: rats
# Method: St-Nle^17 -VIP was labeled with radioactive iodine and 3×10^6cpn/2 μl/rat of the labeled substance were applied intranasally to 250-300 g rats. Animals were sacrificed 15 mins. following drug administration.
# Radioactive tissue samples were then homogenized and subjected to centrifugation (5,400×g for 25 mins.). Supernatants were then subjected to HPLC analysis against St-Nle^17 -VIP as a marker. Elution was carried out using acetonitrile gradient at fraction 30. Samples were then weighed and monitored for radioactivity in a gamma counter. To assess for the integrity of the incorporated St-Nle^17 -VIP radioactive tissue, supernatants were subjected to HPLC analysis. Radioactive tissue samples were hornogenized, subjected to centrifugation and supernatnants analyzed by HPLC fractionation against St-Nle-VIP as a marker (eluting using an acetonitrile gradient at fraction 30).
# [10] = tested on: Sprague Dawley rats; experiment: Single dose toxicity, orally administered; format: in vivo, rat
# Excerpt: The single dose toxicity of St-Nle^17 -VIP administered orally was investigated in 4 groups of six male and six female rats (Sprague Dawley (S.D.) strain, purchased from Levinstein, Yokneam, Israel.)
# [11] = tested on: learning and memory in AF64A-injected rats; experiment: Morris water maze, AF64A animal model of Alzheimer, I.C.V. drug administration; format: in vivo, rat; settings: 100 ng I.C.V. daily
# Method: 13 Male rats were injected intracerebroventricularly (I.C.V.) at a rate of 0.21 μl/min, using plastic tubing (PE-20) attached to 25G needle. 5 rats serving as control received an injection of saline (2 μl/side), 8 other animals received injections of ethylcholine aziridium (AF64A) (3 nmol/2 μl/side). AF64A is an inducer of cholinergic hypofunctions which mimics some of the cholinergic hypofunction reported in Alzheimer's disease and is used for preparing animal models of Alzheimer^(22).
# Animals were cannulated following injection to allow I.C.V. drug application and left to recover for a week. Learning and memory tests were conducted using the swim maze test. The 8 animals injected with AF64A were divided into two equal groups and were thereafter injected daily with either saline or 100 ng I.C.V. of St-Nle^17 -VIP. The five control rats (see above) were injected with saline. Following seven injection days, behavioral assays were conducted for an additional 14 days on both control and test animals. […]
# as §1
# [12] = tested on: VIP receptor; experiment: Affinity studies: displacement of radiolabeled VIP on cerebral cortical astrocytes; format: binding
# Method: (a) Cerebral cortical astrocytes were obtained and cultured as described before^16,17). Binding studies were performed on intact cells, 5-7 days after replating at 4° C. in phosphate buffered saline containing 0.1% bovine serum albumin. Cells were divided into two groups. Group 1 was incubated with varying concentrations of St-VIP and Group 2 was incubated with varying concentrations of St-Nle^17 -VIP. After 30 min. incubation with the VIP analogue, 50 pM of ^125 -VIP^(14) was added and incubated for an hour. The media was then removed and cells were washed three times by rapid addition and removal of 1 ml phosphate buffered saline at 4° C. The labeled cells were then dissolved in 0.2 N NaOH and transferred for radioactivity counting by an automatic gamma counter (Wallac 1470 Wizard).
# [13] = tested on: Sprague Dawley rats; experiment: Single dose toxicity, intravenously injected (tail vein); format: in vivo, rat
# Excerpt: The single dose toxicity of St-Nle^17 -VIP injected intravenously, in to the tail vein, was investigated in 4 groups of six male and six female rats (Sprague Dawley (S.D.) strain, purchased from Levinstein, Yokneam, Israel).
# [14] = displacement of radiolabeled VIP, intact astrocytes, 4° C.
# [15] = i.v., 7 μg/rat + vehicle (group 3)
# [16] = i.v., 7,000 μg/rat + vehicle (group 4)
molecule,measurement,setting,value
"CCCC[C@H](NC(=O)[C@H](CCC(N)=O)NC(=O)[C@H](CCCCN)NC(=O)[C@H](CCCNC(=N)N)NC(=O)[C@H](CC(C)C)NC(=O)[C@H](CCCNC(=N)N)NC(=O)[C@@H](NC(=O)[C@H](Cc1ccc(O)cc1)NC(=O)[C@H](CC(N)=O)NC(=O)[C@H](CC(=O)O)NC(=O)[C@@H](NC(=O)[C@H](Cc1ccccc1)NC(=O)[C@@H](NC(=O)[C@H](C)NC(=O)[C@H](CC(=O)O)NC(=O)[C@H](CO)NC(=O)[C@@H](N)Cc1c[nH]cn1)C(C)C)[C@@H](C)O)[C@@H](C)O)C(=O)N[C@@H](C)C(=O)N[C@H](C(=O)N[C@@H](CCCCN)C(=O)N[C@@H](CCCCN)C(=O)N[C@@H](Cc1ccc(O)cc1)C(=O)N[C@@H](CC(C)C)C(=O)N[C@@H](CC(N)=O)C(=O)N[C@@H](CO)C(=O)N[C@H](C(=O)N[C@@H](CC(C)C)C(=O)N[C@@H](CC(N)=O)C(N)=O)[C@@H](C)CC)C(C)C [Nle^17 -VIP, Norleucine^17 -VIP]",potency relative to native VIP in protecting electrically blocked cells from death,[1],about 10 fold
St-His-Ser-Asp-Gly-Ee-Phe-Thr-Asp-Ser-Tyr-Ser-Arg-Tyr-Arg-amide (stearyl-HSDGIFTDSYSRYR-NH2; not fully specified (residue 5); printed as St-His-Ser-Asp-Gly-Ee-Phe-Thr-Asp-Ser-Tyr-Ser-Arg-Tyr-Arg-amide) [peptide 1],concentrations protecting cells from naturally occurring death,[2],above 10^-8 M
Stearoyl-noricucine^17 -VIP [St-Nle^17 -VIP],potency relative to native VIP in protecting electrically blocked cells from death,[1],about 100 fold
same,peak of active concentrations,[1]; 1 μM tetrodotoxin,broadening of the peak of active concentrations
same,learning and memory (latency of reaching the platform),[3],control animals (.quadrature.) show smaller improvement in the latency of reaching the platform
same,body weight gain or food consumption,[4]; topical daily,No significant differences were detected
same,"clinical pathology (hematology, clinical chemistry)",[4]; topical daily,No dose related or sex related biologically meaningful treatment effects were detected
same,organ weight analysis,[4]; topical daily,No treatment related differences were noted
same,adverse effects,"[4]; topical daily for 13 weeks, 7, 700, 3500 μg",No dose related adverse effects were detected; also recorded: did not cause any serious adverse effects at any of the dosages tested
same,mortality,"[4]; topical daily, 7, 700, 3500 μg",No mortality associated with drug application was noted
same,biologically active dose,[5],7 μg per rat
same,most effective protective concentration (peak activity) against β-amyloid associated death,[6]; 25 μM β-amyloid fragment 25-35,10^-13 M
same,protection of neurons from β-amyloid peptide fragment toxicity,"[6]; 25 μM β-amyloid fragment 25-35, 5 days",able to protect neurons from the toxic effect of β-amyloid peptide fragment at all concentrations tested
same,concentrations protecting also against naturally occurring cell death,[6]; FIG. 7 experiment,10^-10 M and 10^-9 M
same,learning and memory (latency of reaching the platform),[7],showed a greater improvement in the latency of reaching the platform over time as compared to control untreated animals
same,"stability, powder",[8],for a year
same,distribution to brain after nasal administration,[9]; 15 mins. after intranasal administration,able to reach the brain
same,integrity of peptide in tissue (HPLC of radioactive supernatants),[9]; intranasal,"reaches its target organs in an active, intact form"
same,body weight gain and food consumption,[10]; oral single dose,normal body weight gain
same,side effects,[10]; oral single dose,"No necrotic reactions, or any other side effects were observed"
same,mortality,"[10]; oral single dose, up to 7000 μg/rat",No mortality occurred
same,acute oral LD50,"[10]; oral, rat",greater than 7000 μg/rat
same,learning and memory (latency of reaching the platform),[11],"showed recovery of the learning and memory abilities, essentially similar to that of control animals"
same,affinity to the high affinity receptor relative to VIP,[12]; VIP value from reference 19,about 100 fold
same,"affinity relative to St-VIP, high concentration zone (low affinity zone)",[12]; [14],10 fold
same,"affinity relative to St-VIP, low concentration (high affinity) zone",[12]; [14],10 fold
same,animals with necrotic reaction at the site of injection (tail skin),[13]; [15],58%
same,mortality,[13]; [15],No mortality occurred in groups 1 and 3
same,animals with necrotic reaction at the site of injection (tail skin),[13]; [16],all the animals
same,mortality,[13]; [16],Seven rats (3 male and 4 female out of 12) died
same,time of death after administration,[13]; [16],≤ 3 h
same,other side effects in surviving rats,"[13]; i.v., all groups",No other side effects were observed
same,body weight gain versus vehicle control,"[13]; i.v., two weeks study period",increased weight gain
same,"acute intravenous LD50, combined males and females","[13]; i.v., with vehicle, combined males and females","less than 7,000 μg"
same,"acute intravenous LD50, males","[13]; i.v., with vehicle, male rats","7,000 μg/male rat"
"fragment 25-35 of β-amyloid peptide: β-amyloid peptide fragment comprising amino acids in positions 25 to 35, toxic to neurons in culture (GSNKGAIIGLM; Amyloid-beta protein 42; UniProt P05067 696-706, looked up, fragment) [reference compound]",number of living neurons per tested area,"[6]; 25 μM fragment alone, 150 without fragment",42 neurons

# From patent publication US5972883A, “Method for the treatment of neurodegenerative diseases by administering VIP, an analogue, fragment or a conjugate thereof” (Yeda Research and Development Co. Ltd., priority 1993, dated 1999)
